Results on 21 compounds are retold here after ChEMBL document CHEMBL1201862, “PubChem BioAssay data set” (2004).

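Five concentrations, 48 hours, 96-well plates. GI50 marks 50% less growth.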 Activity calls are given as the source filed them. No stated cut-off is given here; in the data, active = GI50 up to about 1.1 µM and inactive = higher. Bounds are passed on as bounds.

What all share (experiment): DTP human tumour cell line panel, 48 h
The test system of experiment [1] is DMS-114.
Experiment [2] concerns M19-MEL.
For experiment [3], the system named is HOP-18.
The test system of experiment [4] is KM-20L2.
In experiment [5] the test system is MDA-N.
Experiment [6] has as its system Hs-578T.
For experiment [7], the system named is MDA-MB-435.
For experiment [8], the system named is RXF 631.
The test system of experiment [9] is SNB-78.

By GI50 is commonly meant the concentration that inhibits growth by half. With `Oc1c(C(Nc2cccc3cccnc23)c2ccccc2)ccc2cccnc12` (centres undefined), the GI50 is 2.65 µM (inactive) in [1], 5.53 µM (inactive) in [2], 4.78 µM (inactive) in [3] and 3.77 µM (inactive) in experiment [4].
Consider `Cc1ccn2c(=O)cc(-c3ccccc3)nc2c1`, for which the values for the GI50 in experiment [5], in experiment [6] and in [7] were > 100 µM (inactive), > 100 µM (inactive) and > 10 µM (inactive), respectively.
For the compound `CC(C)OP(=O)(OC(C)C)/C(=N/Nc1ccc([N+](=O)[O-])cc1)Nc1ccc(N/C(=N\Nc2ccc([N+](=O)[O-])cc2)P(=O)(OC(C)C)OC(C)C)cc1`, the GI50 in experiment [1] was 9.51 µM (inactive); in experiment [2], 82.4 µM (inactive); in experiment [4], 14.9 µM (inactive).
As to `COC(=O)C1=C(C(=O)OC)C23CC1C1C(C(=O)OC)=C(C(=O)OC)C12C1C=CC3C2C(=O)OC(=O)C21` (centres undefined), the GI50 is 26.6 µM (inactive) in experiment [1]; 71.6 µM (inactive) in experiment [8]; 50.9 µM (inactive) in experiment [2]; 24.2 µM (inactive) in experiment [9]; > 100 µM (inactive) in experiment [4].
In the case of `CC1=C[C@@H]2[C@@H](CC(CO)=C[C@H]3[C@@H]4C(C)(C)[C@]4(OCC(C)C)[C@H](OCC(C)C)[C@@H](C)[C@]23O)C1=O`, the GI50 in experiment [5] is 0.649 µM (active); in experiment [6] it was 0.9 µM (active); in [7] it was 0.426 µM (active).
Consider `N#Cc1c(N)nc(Nc2cccc3ccccc23)c(C#N)c1C#N`, for which the GI50 is 1.84 µM (inactive) in experiment [5], 2.43 µM (inactive) in experiment [6] and 3.31 µM (inactive) in experiment [7].
For the compound `COC(=O)C(NC(=O)c1ccccc1)C(c1c(O)cc(O)cc1O)P(=O)(OC)OC` (centres undefined), the GI50 in experiment [1], in [8], in experiment [2] and in [4] was > 100 µM (inactive) each time.
Regarding `O=C1C[C@@H]2[C@@H](C=CC23CCCC3)N1O`, the GI50 in [1], in experiment [2], in [9], in [3] and in experiment [4] was > 100 µM (inactive) in each case.
Take `O=S(=O)(N=S(c1ccccc1)c1ccccc1)c1ccccc1`: the GI50 in [7] is > 100 µM (inactive).
With `N#CCCN(CCC#N)c1ccc(C(=N/c2ccc(Cl)cc2)/N=N/c2ccc(Cl)cc2)cc1`, the results for the GI50 in [5], in [6] and in experiment [7] were 19.5 µM (inactive), 19.4 µM (inactive) and 18.2 µM (inactive), respectively.
Take `NC(CCCCO)C(=O)O` (centres undefined): the GI50 in [6] and in [7] was > 100 µM (inactive) throughout.
As to `Nc1ncnc2c1cnn2Cc1ccc(Cl)cc1`, the GI50 in experiment [5], in experiment [6] and in experiment [7] was > 100 µM (inactive) each time.
As for `O=C1CCC2=C(CCC2)N1CCc1ccc2c(c1)OCO2`, the GI50 in experiment [5] was > 100 µM (inactive); in [6], 49 µM (inactive).
For `O=C(O)c1ccccc1CN1CCCC(C(=O)O)C1` (centres undefined), the GI50 in experiment [5], in [6] and in experiment [7] was > 100 µM (inactive) each time.
With `Cc1ccc(-c2n[nH]c(=O)n2/N=C\c2ccccc2)cc1`, the results for the GI50 in experiment [5], in experiment [6] and in [7] were 51.1 µM (inactive), 23.7 µM (inactive) and > 100 µM (inactive), respectively.
Take `CC(=O)C1=C(C)NC(=C(C#N)C#N)C(C#N)=C1`: the GI50 in experiment [5], in experiment [6] and in [7] was > 100 µM (inactive) throughout.
As for `CCCCNC(=S)Nc1nc(C(=O)NNC(=S)NC2CCCCC2)cs1`, the GI50 in experiment [5] and in [7] was > 100 µM (inactive) throughout.
As for `C=C1C(=O)O[C@@H]2[C@H](O)[C@@H](C)[C@@H]3C=CC(=O)[C@@]3(C)[C@H](OC(=O)C=C(C)C)[C@H]12`, the GI50 was 2.4 µM (inactive) in [1], 1.12 µM (active) in experiment [2], 1.67 µM (inactive) in experiment [3] and 1.66 µM (inactive) in experiment [4].
As for `O=S(O)CCCCCSSSCCCCCS(=O)O`, the values for the GI50 in [2], in experiment [9] and in [4] were 22.1 µM (inactive), 45.6 µM (inactive) and > 100 µM (inactive), respectively.
Take `Nc1nc(=O)c2c([nH]1)NCC(CNc1ccc(C(=O)N[C@@H](CCC(=O)O)C(=O)O)cc1)N2C=O` (some centres undefined) [LEUCOVORIN CALCIUM]: the GI50 in [1], in experiment [2], in experiment [9], in [3] and in experiment [4] was > 125 µM (inactive) each time.
Regarding `CCCCCCCCCCCCCCCCCCOP(=O)([O-])OCC[N+](C)(C)C` [OCTADECYLPHOSPHONOCHOLINE], the GI50 is 13.6 µM (inactive) in [1]; 4.24 µM (inactive) in [2]; 10.2 µM (inactive) in [9]; 15.9 µM (inactive) in [3]; 3.38 µM (inactive) in experiment [4].
